Assay results reported in patent publication US4857516A, “Coumaran derivatives and their pharmaceutical use” (Takeda Chemical Industries, Ltd., priority 1986, dated 1989).

What was measured:
5-lipoxygenase = target: T1, 5-lipoxygenase (Rattus norvegicus, UniProt P12527); test: Inhibition of 5-lipoxygenase (5-HETE production in RBL-1 cells); type: cell-based; conditions: for inhibition at 1 µM: 10^-6 M; for inhibition at 0.1 µM: 10^-7 M; for inhibition at 0.01 µM: 10^-8 M
T1 construct: endogenous in cells; host or cells: RBL-1 (rat basophilic leukemia cells)
T1 sequence (P12527 1-673): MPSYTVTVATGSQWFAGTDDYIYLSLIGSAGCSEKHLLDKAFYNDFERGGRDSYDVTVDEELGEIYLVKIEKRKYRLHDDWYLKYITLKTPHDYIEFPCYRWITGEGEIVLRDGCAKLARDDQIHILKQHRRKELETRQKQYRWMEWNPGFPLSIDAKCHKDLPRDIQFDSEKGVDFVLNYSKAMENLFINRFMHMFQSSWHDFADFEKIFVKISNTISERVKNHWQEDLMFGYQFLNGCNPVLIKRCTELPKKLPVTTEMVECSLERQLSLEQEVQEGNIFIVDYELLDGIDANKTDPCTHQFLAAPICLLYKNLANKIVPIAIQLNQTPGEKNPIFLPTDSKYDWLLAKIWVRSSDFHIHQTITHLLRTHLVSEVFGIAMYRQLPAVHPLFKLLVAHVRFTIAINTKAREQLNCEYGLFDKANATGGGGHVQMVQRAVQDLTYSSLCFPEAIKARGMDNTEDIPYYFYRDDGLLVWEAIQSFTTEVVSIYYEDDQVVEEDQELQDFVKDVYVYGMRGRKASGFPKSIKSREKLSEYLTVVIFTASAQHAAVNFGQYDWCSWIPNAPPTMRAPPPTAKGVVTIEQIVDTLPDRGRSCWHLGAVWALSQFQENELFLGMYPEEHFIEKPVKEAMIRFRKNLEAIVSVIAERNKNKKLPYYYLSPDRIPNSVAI
Protocol: 10^7 RBL-1 cells (rat basophilic leukemia cells) were suspended in 0.5 ml of MCM (mast cell medium). […] Then 4 ml of ethanol was added, and the mixture was well shaken and kept at room temperature for 10 min.
The mixture was centrifuged for 10 min. (2000 rpm), and the supernatant was separated. The supernatant obtained was concentrated to dryness under reduced pressure. To the residue 0.5 ml of 60 v/v % aqueous methanol was added. One hundred μl of this solution was subjected to high performance liquid chromatography for quantitative analysis of 5-HETE (5-hydroxyeicosatetraenoic acid). The amount of 5-HETE was determined by measurement of the absorbance at 237 nm with a UV absorption monitor.
The inhibitory effect (IE) of production of 5-HETE is expressed by (1-b/a)×100, wherein a is the peak height or the area corrected with the peak due to the internal standard in the absence of the compound (I) or a pharmaceutically acceptable salt thereof, and b is the peak height or peak area corrected with the peak due to the internal standard in the presence of the compound (I) or a pharmaceutically acceptable salt thereof.

[1] = system: neurological deficits caused by spinal cord compression in rats; test: Functional neurologic impairment induced by spinal cord compression in rats; type: in vivo, rat; conditions: 40 mg/kg, p.o.; for neurological impairment caused by spinal cord compression (in words): Table 4(III)
Excerpt: (§1) Male Jcl:Wistar rats, weighing about 350 g at the time of spinal cord compression were used. A spinal cord injury was produced in rats by compressing the spinal cord with a stainless screw of 2.8 mm length and 2 mm diameter at thoracic 11 (T11) level under pentobarbital anesthesia. On the day of the operation, the screw was placed so that the end was just above the subarachnoid membrane of the spinal cord.
(§2) On the following day, the screw was completely tightened to compress the spinal cord without penetrating the subarachnoid membrane. After compression of the spinal cord for 60 min., the screw was removed. Test compounds were given orally 5 min. after the removal of screw.
0; flaccid paralysis, no movement of hind limbs, no response to pinching of tail with foreceps (i.e. movement of fore limbs, biting foreceps, vocalization)
1; no movement of hind limbs, but responds to pinching of tail with foreceps
2; uncoordinated movement (loss of coordination between limbs), but can not support own weight
3; movement with an impairment (general coordination between limbs), but can not support own weight
4; walking with a slight ataxia of the hind limbs, but can support own weight
(§3) The median neurological score of the drug-treated groups were compared with that saline-teated control group. Statistical analysis was done using the Mann-Whitney U-test. The incidence of rats showing urinary incontinence was also compared by the .chi.^2 -test.

[2] = system: lipid peroxide production in rat brain homogenates; test: Inhibitory action on lipid peroxide production in rat brain homogenates; type: biochemical; conditions: 5 v/v % rat brain homogenate, pH 7.4, 1 hour at 37° C.; read-out: Inhibition (IC50) of lipid peroxide production
Protocol: The male SD rat (12 weeks) brain tissue was extracted under anesthesia after depletion. The extracted brain tissue was used as 5 v/v % homogenate in phosphate buffer (pH 7.4). After incubation of the homogenate for 1 hour at 37° C., the peroxide produced was determined by the thiobarbituric acid method according to the method described in Analytical Biochemistry, 95, 551 (1979).
Before incubation, test compounds were added in 5 v/v % homogenate so that their final concentration becomes 10^-5 M. […]

[3] = system: urinary incontinence in rats with spinal cord compression; test: Incidence of rats showing urinary incontinence (spinal cord compression); type: in vivo, rat; design: Incidence of rats showing urinary incontinence: unit not given here; conditions: 40 mg/kg, p.o.; for incidence of urinary incontinence (in words): Table 4(IV)
Excerpt: as §1, §2, §3

[4] = system: neurological deficits in rats with cerebral ischemia; test: Neurological deficits in rats with experimental cerebral ischemia; type: in vivo, rat; conditions: p.o.
Protocol: Male Crj:Wistar rats, that were 7 weeks old at the time of electocauterization of the bilateral vertebral arteries, were used. Electrocauterization of the bilateral vertebral arteries was performed under pentobarbital Na (40 mg/kg, i.p.) anesthesia. Global cerebral ischemia was produced by 20 min. occlusion of both common carotid arteries 24 hr after the permanent electrocauterization of the bilateral vertebral arteries (Pulsinelli W. A. and Brierly J. B., Stroke 10, 267-272 (1979).
The compound of Example 20 was given orally as a single dose immediately after the reperfusion of both carotid arteries.
1; decrease in spontaneous motor activity, piloerection, ptosis, miosis, hyperirritability, slight ataxia
2; moderate to servere ataxia
3; loss of righting reflex, slight convulsions
4; severe convulsions, coma
The median neurological deficit scores of the drug-treated groups were compared with that of saline-treated control. Statistical analysis was done using the Mann-Whitney U-test.

[5] = system: excitatory behavior induced by FeCl2 in mice; test: Excitatory behavior induced by spinal intrathecal injection of FeCl2 in mice; type: in vivo, mouse; conditions: 100 mg/kg p.o.; for Score (mean behavioral score): 30 min. prior to FeCl2, 0 normal to 5 death; for Percent inhibition (of mean score): vs vehicle p.o.
Protocol: Male Slc:ICP mice (5 weeks) were used. Each group consisted of 10 mice. 5 μl of 50 mM FeCl2 in saline was injected into spinal subarchnoid space betwen the 1st sacral and the 6th lumbar segment, the behavioral responses were observed from 15 min. to 1 hr. after the intrathecal injection of FeCl2 and scored as follows.
Score Behavioral responses
0: normal (no abnormal behavior)
1: vigorously biting lower abdomen or lower extremities
(a) extremely biting lower body with rolling
(b) hyperreactivity and agressive to external stmuli
at least one of above three behavioral changes were observed
4: tonic convulsion or paralysis of lower extremities.
The test compounds (100 mg/kg) were orally administered 30 min. prior to FeCl2 injection.

[6] = system: generation of HHT in rat platelets; test: Inhibitory effect on the generation of 12-hydroxyheptadeca-5,8,10-trienoic acid (HHT) in rat platelets; type: cell-based; conditions: rat platelet rich plasma
Protocol: Blood was collected in 3.2 v/v % sodium citrate (0.8 ml for 7.2 ml of blood) from the abdominal aorta of male Wister rats (Jcl, 12 to 15 weeks) anesthesized with pentobarbital. Platelet rich plasma (PRP) was obtained by centrifuging the blood at 800 rpm for 10 min at room temperature. Platelet poor plasma (PPP) was prepared by centrifuging the remaining blood at 3,000 rpm for 10 min. The platelet concentration of PRP was adjusted to 1,000,000/μl with PPP. […]
The reaction was stopped by adding 100 ml of ethanol and the mixture was allowed to stand for 10 min. at room temperature. The reaction mixture was centrifuged at 2,000 rpm for 10 min. and the supernatant obtained was evaporated. To the concentrate, 0.2 ml of 60 v/v % aqueous ethanol was added.
100 μl of this solution was subjected to high performance liquid chromatography for quantitative analysis of HHT. The amount of HHT was determined by measurement of absorbance at 237 nm with a UV absorption monitor.
The inhibitory effect (IE) on the generation of HHT is expressed by (1-b/a)×100, wherein a is the peak height or the peak area corrected with the peak due to the internal standard in the absence of the compound (I) or a pharmaceutically acceptable salt thereof, and b is the peak height or the peak area corrected with the peak due to the internal standard in the compound (I) or a pharmaceutically acceptable salt thereof.

[7] = day 1, 0 flaccid paralysis to 5 normal gait, Ex. 20 **p < 0.01
[8] = day 3, Ex. 7 *p < 0.05, Ex. 20 **p < 0.01

| SMILES | inhibition at 1 µM (5-lipoxygenase) [%] | inhibition at 0.1 µM (5-lipoxygenase) [%] | inhibition at 0.01 µM (5-lipoxygenase) [%] | neurological score (median value) [1, 7] | neurological score (median value) [1, 8] | neurological score (median value) ([1]; day 7, Ex. 20 **p < 0.01) | neurological score (median value) ([1]; day 14, Ex. 20 *p < 0.05) | neurological impairment caused by spinal cord compression (in words) [1] | IC50 [2] [µM] | Incidence of rats showing urinary incontinence ([3]; day 1, Ex. 20 **p < 0.01) | Incidence of rats showing urinary incontinence ([3]; day 2, Ex. 20 **p < 0.01) | Incidence of rats showing urinary incontinence [3, 8] | Incidence of rats showing urinary incontinence ([3]; day 5, Ex. 20 **p < 0.01) | Incidence of rats showing urinary incontinence ([3]; day 7, Ex. 7 *p < 0.05) | Incidence of rats showing urinary incontinence ([3]; day 10) | Incidence of rats showing urinary incontinence ([3]; day 14) | incidence of urinary incontinence (in words) [3] | Score (mean behavioral score) [5] | Percent inhibition (of mean score) [5] [%] | further results |
| --- | --- | --- | --- | --- | --- | --- | --- | --- | --- | --- | --- | --- | --- | --- | --- | --- | --- | --- | --- | --- |
| Cc1c(C)c2c(c(C)c1O)C(c1ccc(C(C)C)cc1)C(C)(C)O2 (centres unmarked) [Example 20, 5-hydroxy-2,2,4,6,7-pentamethyl-3-(4-isopropylphenyl)-2,3-dihydrobenzofuran] | 100 | 42 | 36 | 2 | 3 | 4 | 4 | ameliorated the neurological impairment | 0.025 | 0 | 0 | 0 | 0 | 7.1 | 7.1 | 7.1 | reduced the incidence of urinary incontinence |  |  | neurological deficit score (median value) ([4]; 10 mg/kg, day 1, 0 normal to 5 death): 2; neurological deficit score (median value) ([4]; 10 mg/kg, day 2): 2; neurological deficit score (median value) ([4]; 10 mg/kg, day 3, *p < 0.05): 1.5; neurological deficit score (median value) ([4]; 10 mg/kg, day 5, **p < 0.01): 1; neurological deficit score (median value) ([4]; 10 mg/kg, day 7, *p < 0.05): 1; neurological deficit score (median value) ([4]; 10 mg/kg, day 10, **p < 0.01): 0; neurological deficit score (median value) ([4]; 10 mg/kg, day 14): 0; neurological deficit score (median value) ([4]; 40 mg/kg, day 1, 0 normal to 5 death): 2; neurological deficit score (median value) ([4]; 40 mg/kg, day 2): 2; neurological deficit score (median value) ([4]; 40 mg/kg, day 3, **p < 0.01): 1; neurological deficit score (median value) ([4]; 40 mg/kg, day 5, **p < 0.01): 1; neurological deficit score (median value) ([4]; 40 mg/kg, day 7, *p < 0.05): 1; neurological deficit score (median value) ([4]; 40 mg/kg, day 10, *p < 0.05): 0; neurological deficits caused by transient cerebral ischemia (in words) ([4]; 10 and 40 mg/kg): significantly ameliorated the neurological deficits |
| Cc1c(C)c2c(c(C)c1O)C(c1ccc(Cl)cc1)C(C)(C)O2 (centres unmarked) [Example 13] |  |  |  |  |  |  |  |  |  |  |  |  |  |  |  |  |  | 0.7 | 83 |  |
| Cc1c(C)c2c(c(C)c1O)C(c1ccc(F)cc1)C(C)(C)O2 (centres unmarked) [Example 7, 3-(4-fluorophenyl)-5-hydroxy-2,2,4,6,7-pentamethyl-2,3-dihydrobenzofuran] | 99 | 43 | 13 | 2 | 2 | 3 | 4 | ameliorated the neurological impairment | 0.23 | 42.9 | 14.3 | 7.1 | 7.1 | 0 | 0 | 0 | reduced the incidence of urinary incontinence | 0.3 | 93 | inhibition at 100 µM ([6]; 10^-4 M): 49%; inhibition at 10 µM ([6]; 10^-5 M): 35% |
| Cc1c(C)c2c(c(C)c1O)C(c1ccc(Br)cc1)C(C)(C)O2 (centres unmarked) [Example 11] |  |  |  |  |  |  |  |  |  |  |  |  |  |  |  |  |  | 0.7 | 84 |  |
